# Assay results reported in patent US20250059187A1, “COVALENTLY BINDING INHIBITORS OF G12S, G12D AND/OR G12E MUTANTS OF K-RAS GTPASE” (The Regents of the University of California, priority 2021, published 2025).
# Entries after “also recorded” stand apart in the source; their conditions may differ.
# Tests used:
# [1] = biological target: T1, interaction between Raf-RBD and K-Ras(G12D) (Homo sapiens, UniProt P01116, G12D); experiment: Time-resolved fluorescence energy transfer assay, Raf-RBD and K-Ras(G12D); type: biochemical; conditions: dose-dependent
# T1 construct: human K-Ras (G12D, aa 1-169); 6xHis tag + TEV cleavage site (N); made in house; host or cells: E. coli BL21(DE3) for K-Ras
# wild type K-Ras [2] = biological target: T2, wild type K-Ras (Homo sapiens, UniProt P01116); experiment: Covalent modification of test protein after incubation with compound; type: binding; conditions: 24-h incubation with 100 μM compound at 23° C. at pH 7.5
# T2 construct: human K-Ras (wildtype, aa 1-169); 6xHis tag + TEV cleavage site (N, cleaved yes); made in house; host or cells: E. coli BL21(DE3)
# K-Ras G12D = biological target: T3, K-Ras G12D (Homo sapiens, UniProt P01116, G12D); experiment: as above; type: binding; conditions: 24-h incubation with 100 μM compound at 23° C. at pH 7.5
# T3 construct: human K-Ras (G12D, aa 1-169); 6xHis tag + TEV cleavage site (N, cleaved yes); made in house; host or cells: E. coli BL21(DE3)
# K-Ras G12E = biological target: T4, K-Ras G12E (Homo sapiens, UniProt P01116, G12E); experiment: as above; type: binding; conditions: 24-h incubation with 100 μM compound at 23° C. at pH 7.5
# T4 construct: human K-Ras (G12E, aa 1-169); 6xHis tag + TEV cleavage site (N, cleaved yes); made in house; host or cells: E. coli BL21(DE3)
# wild type K-Ras [3] = biological target: T2, wild type K-Ras; experiment: Covalent modification of recombinant wild-type K-Ras by whole-protein mass spectrometry; type: binding; conditions: 23° C.
# Method: (§1) Test compounds were prepared as 100× stock solutions in DMSO. K-Ras proteins were diluted with SEC Buffer (20 mM HEPES 7.5, 150 mM NaCl, 1 mM MgCl2) to 400 nM or 1 μM. In a typical reaction, 0.5 μL 100× compound stock was mixed with 50 μL diluted K-Ras protein, and the resulting mixture was incubated for the desired amount of time. The extent of modification was assessed by electrospray mass spectrometry using a Waters Xevo G2-XS system equipped with an Acquity UPLC BEH C4 1.7 μm column. The mobile phase was a linear gradient of 5-95% acetonitrile/water+0.05% formic acid. For kinetic measurements, a 2× compound solution was first prepared in SEC Buffer, which was then mixed with 400 nM K-Ras(G12S) protein at 1:1 (v/v) ratio. Injection time stamps were used to calculate elapsed time.
# as §1, with “K-Ras(G12D)” for “K-Ras(G12S)”
# K-Ras(G12S)·GDP = biological target: T5, K-Ras(G12S)·GDP (Homo sapiens, UniProt P01116, G12S); experiment: Differential scanning fluorimetry of K-Ras(G12S)·GDP and its adduct; type: binding
# T5 construct: human K-Ras (G12S, aa 1-169); 6xHis tag + TEV cleavage site (N, cleaved yes); made in house; host or cells: E. coli BL21(DE3)
# Method: The protein of interest was diluted with SEC Buffer [20 mM HEPES 7.5, 150 mM NaCl, 1 mM MgCl2] to 8 μM. This solution was dispensed into wells of a white 96-well PCR plate in triplicate (25 μL/well). Fluorescence was measured at 0.5-° C. temperature intervals every 30 s from 25° C. to 95° C. on a Bio-Rad CFX96 qPCR system using the FRET setting. Each data set was normalized to the highest fluorescence and the normalized fluorescence reading was plotted against temperature in GraphPad Prism 8.0. Tm values were determined as the temperature(s) corresponding to the maximum(ma) of the first derivative of the curve.
# K-Ras(G12S) [4] = biological target: T6, K-Ras(G12S) (Homo sapiens, UniProt P01116, G12S); experiment: Covalent modification of recombinant K-Ras(G12S) by whole-protein mass spectrometry; type: binding; design: human K-Ras (G12S, aa 1-169); 6xHis tag + TEV cleavage site (N, cleaved yes); made in house; host or cells: E. coli BL21(DE3); conditions: for extent of modification of K-Ras(G12S)·GDP: 10 μM compound, 4 μM protein
# Method: as §1, with “The mobile phase was a linear gradient of 5-95% acetonitrile/water+0.05% formic acid.” left out
# as §1, with “The mobile phase was a linear gradient of 5-95% acetonitrile/water+0.05% formic acid.” left out, “K-Ras(G12D)” for “K-Ras(G12S)”
# K-Ras(G12S) [5] = biological target: T6, K-Ras(G12S); experiment: Sos- or EDTA-mediated nucleotide exchange assay (BODIPY-GDP); type: biochemical; design: human K-Ras (G12S, aa 1-169); 6xHis tag + TEV cleavage site (N, cleaved yes); made in house; host or cells: E. coli BL21(DE3) for K-Ras; conditions: K-Ras(G12S) adduct
# Method: This assay was performed as previously reported (2-5) with slight modifications. BODIPY-GDP-loaded K-Ras proteins were prepared freshly as follows. To a 10 μM solution of K-Ras(wildtype)·GDP, K-Ras(G12S)·GDP, or K-Ras(G12S)·GDP·1′ in SEC Buffer (1 mL) was added sequentially BODIPY-GDP (5 mM, 40 μL, Thermo Fisher, final concentration 200 μM) and Na-EDTA pH 8.0 (0.5 M, 5 μL, final concentration 2.5 mM). The mixture was incubated at 23° C. for 1 h, and a solution of MgCl2 (1.0 M, 20 μL, […]) was added to the reaction mixture. The protein solution was run through a PD-10 column to remove the excess nucleotide following the manufacturer's protocol. Briefly, sample (˜1.0 mL) and excess buffer (1.5 mL) were loaded onto the column (equilibrated with NucEx Buffer), and desalted protein was eluted with NucEx Buffer (3.5 mL). Protein concentration was measured with Bradford assay and adjusted to 1.25 μM with NucEx Buffer. 12 μL of this solution (triplicate for each condition) was added to wells of a black 384-well low-volume assay plate (Corning 4514). […] The plate was immediately placed in a TECAN Spark 20M plate reader, and fluorescence for BODIPY (excitation 488 nm, emission 520 nm) was read every 30 s over 1 h. Fluorescence intensity was normalized to values at time 0 and plotted again time. […]
# [6] = Stability of substituted β-lactones in PBS 7.4 at 23° C.; type: physicochemical; conditions: after 24 h, pH 7.4
# BaF3/K-Ras(G12D) cells = experiment: Growth inhibition of BaF3/K-Ras(G12D) cells; type: cell-based, murine; conditions: Mus musculus, read-out: IC50, growth of BaF3/K-Ras(G12D) cells
# Method: (§2) Cells were seeded into 96-well white flat bottom plates (1,000 cells/well) (Corning) and incubated overnight. Cells were treated with the indicated compounds in a nine-point threefold dilution series (100 μL final volume) and incubated for 72 h. Cell viability was assessed using a commercial CellTiter-Glo (CTG) luminescence-based assay (Promega). Briefly, the 96-well plates were equilibrated to room temperature before the addition of diluted CTG reagent […] (1:4 CTG reagent:PBS). Plates were placed on an orbital shaker for 30 min before recording luminescence using a Spark 20M (Tecan) plate reader.
# [7] = test system: parental Ba/F3 cells (with IL-3); experiment: Cell viability assay (CellTiter-Glo), parental Ba/F3 cells; type: cell-based, murine; conditions: 10 μM
# Method: as §2, with “Cells were treated with the indicated compounds in a nine-point threefold dilution series (100 μL final volume) and incubated for 72 h.” left out
smiles,measurement,setting,value
C#Cc1cccc2cccc(-c3ncc4c(N5C[C@H]6CC[C@@H](C5)N6C(=O)C5CC(=O)O5)nc(OCC56CCCN5CCC6)nc4c3F)c12 (mixture of isomers) [(RS)-1],interaction between Raf-RBD and K-Ras(G12D),[1],disrupted Ras-RafRBD binding
same,% covalent modification of wild type K-Ras,wild type K-Ras [2],0%
same,% covalent modification of K-Ras G12D,K-Ras G12D,100%
same,% covalent modification of K-Ras G12E,K-Ras G12E,6.3%
CN1CCC[C@H]1COc1nc2c(c(N3CCC4C(=O)OC4C3)n1)CCN(c1cccc3cccc(Cl)c13)C2 (some centres unmarked) [1′],covalent adducts with wild-type K-Ras protein,"wild type K-Ras [3]; 10 μM compound, 4 μM protein",neither of these compounds formed covalent adducts
same,% covalent modification of wild type K-Ras,"wild type K-Ras [3]; 24-h incubation, 100 μM compound, pH 7.5",7.0%
same,change of melting temperature of K-Ras(G12S)·GDP on adduct formation,K-Ras(G12S)·GDP,+17.2 °C
same,melting temperature (Tm) of the K-Ras(G12S)·GDP adduct,K-Ras(G12S)·GDP; unmodified K-Ras(G12S)·GDP 53.7° C.,70.9 °C
same,% covalent modification of wild type K-Ras,wild type K-Ras [2],7.0%
same,% covalent modification of K-Ras G12D,K-Ras G12D,7.0%
same,% covalent modification of K-Ras G12E,K-Ras G12E,12.0%
same,extent of modification of K-Ras(G12S)·GDP,"K-Ras(G12S) [4]; 1 hour, 23° C.",64%
same,extent of modification of K-Ras(G12S)·GDP,K-Ras(G12S) [4]; 12 h,100%
same,% covalent modification of K-Ras G12S,"K-Ras(G12S) [4]; 24-h incubation, 100 μM compound, 23° C., pH 7.5",100%
same,reaction with GppNHp-loaded K-Ras(G12S),"K-Ras(G12S) [4]; GppNHp-loaded protein, identical conditions",no reaction was observed; also recorded: does not react
same,EDTA promoted nucleotide exchange,K-Ras(G12S) [5]; EDTA,decreased the rate of EDTA promoted exchange
same,Sos-catalyzed nucleotide exchange,K-Ras(G12S) [5]; Sos,blocked Sos-catalyzed exchange
CC(C)[C@@H]1C(=O)O[C@H]1C(=O)N1[C@@H]2CC[C@H]1CN(c1nc(OCC34CCCN3CCC4)nc3c(F)c(-c4cccc5cccc(Cl)c45)ncc13)C2 [Compound 4],material remaining intact (hydrolysis),[6],> 90%
same,IC50,BaF3/K-Ras(G12D) cells,71 nM
"C=C(F)C(=O)N1CCN(c2nc(OC[C@@H]3CCCN3C)nc3c2CCN(c2cccc4cccc(Cl)c24)C3)C[C@@H]1CC#N [adagrasib, reference compound]",cell death of parental Ba/F3 cells,[7],complete cell death
